{
  "source": "patent US7718804B2",
  "about": "“Quaternary nitrogen heterocyclic compounds for detecting aqueous monosaccharides in physiological fluids” (University of Maryland Biotechnology Institute, priority 2003, dated 2010)",
  "key": {"[1]": {"assay": "Fluorescence intensity response to fructose in solution", "description": "(§1) All steady state fluorescence measurements were performed in a 4×1×1 cm fluorometric plastic cuvette, using a Varian Cary Eclipse fluorometer, and all absorption measurements were performed using a Varian UV/VIS 50 spectrophotometer.\nThe emission spectra of o-BMQBA in the presence of varying concentrations of fructose and glucose are shown in FIG. 4A and FIG. 4B, respectively. It can be seen that the fluorescence intensity of o-BMQBA in pH 7.5 phosphate buffer is inversely proportional to the glucose and fructose concentrations. […] A plot of the intensity ratio, I′/I, at λ=427 nm, where I′ and I represent the fluorescence intensities in the absence and presence of sugar, respectively, is shown in FIG. 4C. […] It is noted that the concentration of fructose in blood is ˜10 times lower than glucose, a relationship which is also thought to occur in tears (N. Dicesare, et. al., J. Bio. Med. Opt., 7(4), 538-545 (2002)).\nThe intensity ratio for o-BMQBA in buffered media (pH 5-8) at various glucose concentrations is shown in FIG. 8A, wherein I′ corresponds to the intensity in the absence of glucose and I corresponds to the intensity at the specified glucose concentration. In addition, the intensity ratio for o-BMQBA in buffered media (pH 5-8) at low glucose concentrations, typical of those found in tears, is shown in FIG. 8B. Correspondingly, the intensity ratio for o-BMQBA in buffered media (pH 5-8) at various fructose concentrations is shown in FIGS. 9A and 9B.\nBecause physiological fluids contain chloride ions, which are well known quenchers of quinolinium fluorescence (Geddes, C. D., Meas. Sci. Technol., 12(9), R53-R88 (2001); Geddes, C. D., et al., J. Heterocyclic Chem., 36(4), 949-951 (1999); Geddes, C. D., et al., Anal. Biochem., 293(1), 60-66 (2001)), the fluorescence intensity and intensity ratios of o-BMQBA in pH 7.5 buffer having 100 mM NaCl with varying quantities of fructose or glucose was measured and shown in FIGS. 10 and 11, respectively, where I′ corresponds to the intensity in the absence of fructose and I corresponds to the intensity at the specified fructose concentration. It can be seen that although chloride quenched the intensity of the emission in the presence of fructose, the intensity ratio change for fructose is still significant, amounting to a 4-fold decrease in fluorescence intensity at 60 mM fructose (see FIG. 10B). The quenching effect was less significant at lower concentrations of fructose (see FIG. 10C) and for glucose concentrations, both high and low (see FIGS. 11B and 11C). This minimal quenching effect for BMQBA is supported by the calculated Stern-Volmer constants, KSV, for the BMQBA compounds in water, which were determined to be 44.0 M^−1, 20.0 M^−1, 17.0 M^−1 and 35.0 M^−1 for o-BMQBA, m-BMQBA, p-BMQBA and BMQ, respectively. These are small quenching constants that are readily accounted for using simple corrections in the fluorescence signal, as readily determined by one skilled in the art of fluorescence.\n(§2) The intensity ratio at λ=450 nm for o-BMOQBA in buffered media (pH 5-8) at various glucose concentrations is shown in FIG. 16A, wherein I′ corresponds to the intensity in the absence of glucose and I corresponds to the intensity at the specified glucose concentration. In addition, the intensity ratio for o-BMOQBA in buffered media (pH 5-8) at low glucose concentrations, typical of those found in tears, is shown in FIG. 16B. Correspondingly, the intensity ratio for o-BMOQBA in buffered media (pH 5-8) at various fructose concentrations is shown in FIGS. 17A and 17B.\nEach BAF was tested to determine the usefulness of these BAFs with regard to tear glucose sensing in a contact lens. Towards that end, both solution-based and doped contact lens-based measurements, the methods of which are described above, were performed and subsequently compared. […]"}, "[2]": {"assay": "Fluorescence intensity response to glucose in solution", "details": "60 mM glucose, pH 8.0 buffer/methanol (2:1)", "description": "All steady state fluorescence measurements were performed in a 4×1×1 cm fluorometric plastic cuvette, using a Varian Cary Eclipse fluorometer, and all absorption measurements were performed using a Varian UV/VIS 50 spectrophotometer. […]\nThe emission spectra of o-BMOQBA in the presence of varying concentrations of glucose and fructose are shown in FIG. 12A and FIG. 12B, respectively. It can be seen that the fluorescence intensity of o-BMOQBA in pH 7.5 phosphate buffer is inversely proportional to the glucose and fructose concentrations. […] A plot of the intensity ratio, I′/I, at λ=450 nm, where I′ and I represent the fluorescence intensities in the absence and presence of sugar, respectively, is shown in FIG. 12C. […] Referring to FIG. 12C, there is a 2.8-fold change in intensity by the addition of 60 mM sugar.\nas §2\nEach BAF was tested to determine the usefulness of these BAFs with regard to tear glucose sensing in a contact lens. Towards that end, both solution-based and doped contact lens-based measurements, the methods of which are described above, were performed and subsequently compared."}, "[3]": {"assay": "Spectral properties in water (absorption, emission, quantum yield, lifetime)", "type": "physicochemical", "details": "for φf (quantum yield): relative to SPQ (φf=0.53 in water)", "description": "as §1\nTime-solved intensity decays were measured using reverse start-stop time-correlated single-photon timing (TCSPC) with a Becker and Hickl Gmbh 630 SPC PC card and unamplified MCP-PMT. Vertically polarized excitation at ˜372 nm was obtained using a pulsed LED source (1 MHz repetition rate) and a dichroic sheet polarizer. The instrumental response function was ˜1.1 ns fwhm. The emission was collected at the magic angle (54.7°) using a long pass filter (Edmund Scientific) which cut-off the excitation wavelengths.\nThe intensity decays were analyzed in terms of the multi-exponential model:\n[formula] where αi are the amplitudes and τi are the decay times, Σαi=1.0. The fractional contribution of each component to the steady-state intensity is given by:\nThe mean lifetime of the excited state is given by:\nThe values of αi and τi were determined by non-linear least squares impulse reconvolution with a goodness-of-fit χ^2R criterion.\nA representative absorption and emission spectra for o-BMQBA in water is shown in FIG. 3B, which corresponds to all three isomers and BMQ. BMQBA has a strong absorption band at ˜320 nm, which can be assigned to n→π* transitions, and an excitation band at ˜427 nm, and as such, has a large Stokes shift of about 100 nm, which is ideal for fluorescence sensing. The quantum yield values of the BMQBA compounds in water relative to N-(3-sulfopropyl)-6-methoxyquinolinium (SPQ) (φf=0.53 in water) are shown in Table 1. The low quantum yields and relatively short lifetime of the BMQBA and BMQ molecules can be attributed to a photo-induced electron transfer, whereby the phenyl ring acts as the donor and the quinolinium moiety acts as the acceptor.\nA representative absorption and emission spectra for o-BMOQBA in water is shown in FIG. 3A, which corresponds to all three isomers and BMOQ. BMOQBA has a strong absorption band at ˜345 nm, which can be assigned to n→π* transitions, and an excitation band at ˜450 nm, and as such, has a large Stokes shift of about 100 nm, which is ideal for fluorescence sensing. The quantum yield values of the BMOQBA compounds in water relative to N-(3-sulfopropyl)-6-methoxyquinolinium (SPQ) (φf=0.53 in water) are shown in Table 2. […] We can only speculate as to the quantum yield differences between the m-BMOQBA and p-BMOQBA compounds, which may be attributed to through-bond and through-space mechanisms."}, "[4]": {"details": "in water; cited from earlier work"}, "[5]": {"assay": "Fluoride sensing by fluorescence", "description": "Moreover, because the quenching of fluorescence is not a selective process, any fluorophore quenched by chloride is also quenched by bromide and iodide to an even more substantial extent, allowing for the determination of bromide or iodide concentrations as well. Generally, fluorophores that are quenched by chloride are not quenched by fluoride, which is often attributed to the “heavy-atom effect” (Geddes, C. D., Meas. Sci. Technol., 12, R53 (2001); Lakowicz, J. R., Principles of Fluorescence Spectroscopy, 2nd ed., Kluwer/Academic Plenum Publishers, New York, 1997)."}},
  "data": [
    {"compound": "N#Cc1ccc(/C=C/c2ccc(B(O)O)cc2)cc1", "note": "[CSTBA, 4′-cyanostilbene-4-boronic acid]", "values": [
      {"measurement": "red shift of emission spectra", "setting": "[1]; increasing fructose, pH 8.0 buffer/methanol (2:1)", "result": "about 25 nm"}
    ]},
    {"compound": "CN(C)c1ccc(/C=C/c2ccc(B(O)O)cc2)cc1", "note": "[DSTBA, 4′-dimethylaminostilbene-4-boronic acid]", "values": [
      {"measurement": "ratiometric change in intensity", "setting": "[2]", "result": 2, "unit": "fold"},
      {"measurement": "ratiometric change in intensity", "setting": "[1]; 60 mM fructose, pH 8.0 buffer/methanol (2:1)", "result": 4.5, "unit": "fold"},
      {"measurement": "blue shift of emission spectra", "setting": "[1]; fructose 0 mM→100 mM, pH 8.0 buffer/methanol (2:1)", "result": "about 30 nm"}
    ]},
    {"compound": "COc1ccc2c(ccc[n+]2Cc2ccccc2)c1", "note": "[BMOQ, N-benzyl-6-methoxyquinolinium bromide]", "values": [
      {"measurement": "λem (max)", "setting": "[3]", "result": 453, "unit": "nm"},
      {"measurement": "τf (mean lifetime)", "setting": "[3]", "result": 27.3, "unit": "ns"},
      {"measurement": "φf (quantum yield)", "setting": "[3]", "result": 0.54}
    ]},
    {"compound": "COc1ccc2c(ccc[n+]2CCCS(=O)(=O)O)c1", "note": "[SPQ, N-(3-sulfopropyl)-6-methoxyquinolinium]", "values": [
      {"measurement": "φf (quantum yield) of reference standard", "setting": "[4]", "result": 0.53}
    ]},
    {"compound": "Nc1ccc2c(ccc[n+]2Cc2ccccc2B(O)O)c1.[Br-]", "note": "[BAQBA, N-(2-boronobenzyl)-6-aminoquinolinium bromide]", "values": [
      {"measurement": "detectable fluoride concentration", "setting": "[5]", "result": "below 50 mM"}
    ]},
    {"compound": "CN(C)c1ccc(/C=C/C=C/C(=O)c2ccc(B(O)O)cc2)cc1", "note": "[Chalc 2, 5-[4′-(dimethylamino)phenyl]-1-(4′-boronophenyl)-pent-2,4-dien-1-one]", "values": [
      {"measurement": "increase in fluorescence emission", "setting": "[1]; 100 mM fructose, pH 8.0, solution", "result": 3, "unit": "fold"}
    ]},
    {"compound": "Cc1ccc2c(ccc[n+]2Cc2ccccc2)c1", "note": "[BMQ, N-benzyl-6-methylquinolinium bromide]", "values": [
      {"measurement": "λabs (max)", "setting": "[3]", "result": 322, "unit": "nm"},
      {"measurement": "λem (max)", "setting": "[3]", "result": 427, "unit": "nm"},
      {"measurement": "τf (mean lifetime)", "setting": "[3]", "result": 2.59, "unit": "ns"},
      {"measurement": "φf (quantum yield)", "setting": "[3]", "result": 0.045}
    ]}
  ]
}
